Read-outs that look alike come from different tables or passages of the source.
Assays:
MYB mRNA = assay: RT-qPCR splicing assay, MYB canonical junction (CJ) and alternative junction (AJ) mRNA; type: cell-based, human; conditions: Homo sapiens; for AC50: increase in MYB alternative junction (AJ) mRNA, read-out: MYB AJ AC50
Summary of the method: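 Splicing switches were read by TaqMan RT-qPCR on lysates, quantifying exon-exon junctions of the canonical and alternative-exon isoforms. Lysates came from K562 (GAPDH/GUSB reference) or A673 (PPIA reference) cells exposed 24 h to compound in 11 threefold steps from 10 uM, with DMSO ≤0.25%.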

Target C = assay: RT-qPCR splicing assay panel, Target C canonical junction (CJ) mRNA; type: cell-based, human; conditions: Homo sapiens; Table 5 panel; canonical junction qPCR; compound concentration having 50% response in CJ decrease; read-out: Target C IC50 (decrease in CJ mRNA levels)
Summary of the method: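 Exposure: 24 h, 37 °C, 11-point 3-fold dilutions from 10 uM final, DMSO at or below 0.25%, in A673 or K562 cells. Detection: cell-lysate RT-qPCR of canonical junction mRNA relative to GAPDH, GUSB or PPIA.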

[1] = Table 5 panel, canonical junction qPCR, compound concentration having 50% response in CJ decrease, read-out: MYB IC50 (decrease in CJ mRNA levels)
[2] = decrease in MYB canonical junction (CJ) mRNA, RT-qPCR, read-out: MYB CJ IC50

Row | IC50 (MYB mRNA; [1]) | IC50 (MYB mRNA; [2]) | IC50 (Target C) | SMILES | AC50 (MYB mRNA; RT-qPCR)
1 | 0.1 to 1 µM | < 0.1 µM | 1 to 10 µM | Cc1cn2cc(-c3cc(F)c4c(=O)n([C@H]5CCNC[C@@H]5F)cnc4c3)cc(F)c2n1 (relative stereo) [Compound 341, 5-fluoro-7-(8-fluoro-2-methylimidazo[1,2-a]pyridin-6-yl)-3-(trans-3-fluoropiperidin-4-yl)quinazolin-4(3H)-one] | 0.1 to 1 µM
2 | < 0.1 µM | < 0.1 µM | 0.1 to 1 µM | Cc1cn2cc(-c3cc(F)c4c(=O)n([C@H]5CCN[C@@H](C)C5)cnc4c3)cc(F)c2n1 (relative stereo) [Compound 343, cis-5-fluoro-7-(8-fluoro-2-methylimidazo[1,2-a]pyridin-6-yl)-3-(2-methylpiperidin-4-yl)quinazolin-4(3H)-one] | < 0.1 µM
3 | < 0.1 µM | < 0.1 µM | < 0.1 µM | Cc1cn2nc(-c3cc(F)c4c(=O)n([C@H]5CCNC6(CC6)C5)cnc4c3)cc(C)c2n1 (single isomer, unassigned) [Compound 357] | < 0.1 µM
4 | 1 to 10 µM | 1 to 10 µM | 1 to 10 µM | Cc1cn2nc(-c3ccc4c(c3)CCN([C@@H]3CCN[C@H](C)C3)C4=O)cc(C)c2n1 [Compound 281] | 1 to 10 µM
5 | > 10 µM | > 10 µM | > 10 µM | Cc1cn2nc(-c3ccc4c(c3)CCN(C3CCN(C)C3)C4=O)cc(C)c2n1 (stereo not drawn) [Compound 282] | > 10 µM
6 | 0.1 to 1 µM | 0.1 to 1 µM | 0.1 to 1 µM | Cc1cn2nc(-c3ccc4c(=O)n(C5CCCNCC5)ncc4c3)cc(C)c2n1 (stereo not drawn) [Compound 283] | 0.1 to 1 µM
7 | > 10 µM | > 10 µM | > 10 µM | O=c1c2ccc(-c3cn[nH]c3)cc2ncn1C1CCNCC1 [Compound 284] | > 10 µM
8 | 0.1 to 1 µM | 1 to 10 µM | > 10 µM | Cc1nc2c(F)cc(-c3ccc4c(=O)n(C5CCNCC5)cnc4c3)cc2s1 [Compound 285] | 0.1 to 1 µM
9 | 1 to 10 µM | 1 to 10 µM | 1 to 10 µM | Cc1cn2cc(-c3ccc4c(=O)n(C5CCNCC5)cnc4c3)nc2c(C)n1 [Compound 286] | 1 to 10 µM
10 | 0.1 to 1 µM | 0.1 to 1 µM | 0.1 to 1 µM | Cc1cn2nc(-c3ccc4c(=O)n(C5CCNCC5)cnc4c3)nc2c(C)n1 [Compound 287, 7-{6,8-dimethyl-[1,2,4]triazolo[1,5-a]pyrazin-2-yl}-3-(piperidin-4-yl)quinazolin-4-one] | 0.1 to 1 µM
11 | 1 to 10 µM | 1 to 10 µM | 1 to 10 µM | Cc1cn2nc(-c3ccc4c(=O)n(C5CCN(C)CC5)cnc4c3)nc2c(C)n1 [Compound 288, 7-{6,8-dimethyl-[1,2,4]triazolo[1,5-a]pyrazin-2-yl}1-3-(1-methylpiperidin-4-yl)quinazolin-4-one] | 1 to 10 µM
12 | 0.1 to 1 µM | 0.1 to 1 µM | 0.1 to 1 µM | Cc1cn2nc(-c3ccc4c(=O)n(C5CCN(C)CC5)cnc4c3F)cc(C)c2n1 [Compound 290] | 0.1 to 1 µM
13 | 0.1 to 1 µM | < 0.1 µM | 0.1 to 1 µM | Cc1cn2cc(-c3ccc4c(=O)n(C5CCNCC5)cnc4c3)cc(Cl)c2n1 [Compound 291] | 0.1 to 1 µM
14 | 0.1 to 1 µM | 0.1 to 1 µM | 1 to 10 µM | Cc1cn2cc(-c3ccc4c(=O)n(C5CCNCC5)cnc4c3)cc(C)c2n1 [Compound 292] | 0.1 to 1 µM
15 | 0.1 to 1 µM | 0.1 to 1 µM | 1 to 10 µM | Cc1cn2cc(-c3ccc4c(=O)n([C@@H]5CCN[C@@H](C)C5)cnc4c3)cc(F)c2n1 [Compound 293] | 0.1 to 1 µM
16 | 0.1 to 1 µM | 0.1 to 1 µM | 1 to 10 µM | Cc1cn2cc(-c3ccc4c(=O)n(C5CCN[C@@H](C)C5)cnc4c3)cc(F)c2n1 (stereo partly drawn) [Compound 294] | 0.1 to 1 µM
17 | 0.1 to 1 µM | 0.1 to 1 µM | > 10 µM | Cc1cn2cc(-c3ccc4c(=O)n([C@@H]5CCN[C@H](C)C5)cnc4c3)cc(F)c2n1 [Compound 295] | 0.1 to 1 µM
18 | < 0.1 µM | < 0.1 µM | 0.1 to 1 µM | Cc1cn2cc(-c3ccc4c(=O)n([C@H]5CCN[C@H](C)C5)cnc4c3)cc(F)c2n1 [Compound 296] | < 0.1 µM
19 | 0.1 to 1 µM | 0.1 to 1 µM | 1 to 10 µM | Cc1cn2cc(-c3ccc4c(=O)n(C5CCNCC5)cnc4c3)ncc2n1 [Compound 297] | 0.1 to 1 µM
20 | 0.1 to 1 µM | 0.1 to 1 µM | 1 to 10 µM | Cc1cn2nc(-c3ccc4c(=O)n(C5CCNCC5)cnc4c3)cc2c(C)n1 [Compound 298] | 0.1 to 1 µM
21 | > 10 µM | > 10 µM | > 10 µM | CN1CCC(n2cnc3cc(-c4cn[nH]c4)ccc3c2=O)CC1 [Compound 299] | > 10 µM
22 | 1 to 10 µM | 0.1 to 1 µM | 1 to 10 µM | Cc1nc2c(F)cc(-c3ccc4c(=O)n(C5CCN(C)CC5)cnc4c3)cc2o1 [Compound 300] | 1 to 10 µM
23 | 1 to 10 µM | 1 to 10 µM | 1 to 10 µM | Cc1nc2c(F)cc(-c3ccc4c(=O)n(C5CCN(C)CC5)cnc4c3)cc2s1 [Compound 301] | 1 to 10 µM
24 | 1 to 10 µM | 1 to 10 µM | 1 to 10 µM | Cc1cn2cc(-c3ccc4c(=O)n(C5CCN(C)CC5)cnc4c3)nc2c(C)n1 [Compound 302] | 1 to 10 µM
25 | 1 to 10 µM | 1 to 10 µM | 1 to 10 µM | Cc1cn2nc(-c3ccc4c(=O)n(C5CCN(C)CC5)cnc4c3)cc2c(C)n1 [Compound 303] | 1 to 10 µM

The remaining lines, values behind:

Row | SMILES | IC50 (MYB mRNA; [1]) | IC50 (MYB mRNA; [2]) | IC50 (Target C) | AC50 (MYB mRNA; RT-qPCR)
26 | CN1CCN(c2ccc3c(=O)n(-c4ccc5nn(C)cc5c4)cnc3c2)CC1 [Compound 152] | > 10 µM | > 10 µM | > 10 µM | 1 to 10 µM
27 | Cn1cc2cc(-n3cnc4cc(N5CCNCC5)ccc4c3=O)ccc2n1 [Compound 153] | 1 to 10 µM | > 10 µM |  | > 10 µM
28 | Cc1cc(-c2ccc3c(=O)n(C4CCN(C)CC4)cnc3c2)cc2cn(C)nc12 [Compound 156] | 1 to 10 µM | 1 to 10 µM |  | 1 to 10 µM
29 | Cc1cc(-c2ccc3c(=O)n(C4CC(C)(C)NC(C)(C)C4)cnc3c2)cc2cn(C)nc12 [Compound 157] | 1 to 10 µM | 1 to 10 µM |  | 1 to 10 µM
30 | Cn1cc2cc(-n3cnc4cc(C5=CCNCC5)ccc4c3=O)ccc2n1 [Compound 158] | > 10 µM | > 10 µM |  | > 10 µM
31 | CN1CC=C(c2ccc3c(=O)n(-c4ccc5nn(C)cc5c4)cnc3c2)CC1 [Compound 159] | > 10 µM | > 10 µM |  | > 10 µM
32 | CCN1CCC(n2ncc3cc(-c4cc(C)c5nc(C)cn5n4)ccc3c2=O)CC1 [Compound 266] | 0.1 to 1 µM | < 0.1 µM | 0.1 to 1 µM | 0.1 to 1 µM
33 | Cc1cn2nc(-c3ccc4c(c3)CCN(C3CCNC(C)(C)C3)C4=O)cc(C)c2n1 (stereo not drawn) [Compound 267] | 1 to 10 µM | < 0.1 µM | 1 to 10 µM | 1 to 10 µM
34 | Cc1cn2nc(-c3ccc4c(c3)CCN(C3CCN(C)CC3)C4=O)cc(C)c2n1 [Compound 268] | 1 to 10 µM | 0.1 to 1 µM | > 10 µM | 1 to 10 µM
35 | Cc1cn2nc(-c3ccc4c(c3)CCN(C3CCNC3)C4=O)cc(C)c2n1 (stereo not drawn) [Compound 269] | > 10 µM | > 10 µM | > 10 µM | > 10 µM
36 | CCN1CCC(N2CCc3cc(-c4cc(C)c5nc(C)cn5n4)ccc3C2=O)CC1 [Compound 270] | 1 to 10 µM | 1 to 10 µM | > 10 µM | 1 to 10 µM
37 | Cc1cn2nc(-c3ccc4c(=O)n(C5CCN(C)C5)ncc4c3)cc(C)c2n1 (stereo not drawn) [Compound 271] | 1 to 10 µM | 1 to 10 µM | 1 to 10 µM | 1 to 10 µM
38 | Cc1cn2nc(-c3ccc4c(=O)n([C@@H]5CCN[C@H](C)C5)ncc4c3)cc(C)c2n1 [Compound 272] | < 0.1 µM | 0.1 to 1 µM | 0.1 to 1 µM | < 0.1 µM
39 | Cc1cn2nc(-c3ccc4c(=O)n(C5CCNC6(CC6)C5)ncc4c3)cc(C)c2n1 (stereo not drawn) [Compound 274] | < 0.1 µM | < 0.1 µM | < 0.1 µM | < 0.1 µM
40 | Cc1cn2cc(-c3ccc4c(=O)n(C5CCNCC5)ccc4c3)cc(F)c2n1 [Compound 276] | < 0.1 µM | < 0.1 µM | < 0.1 µM | < 0.1 µM
41 | Cc1cn2nc(-c3ccc4c(=O)n([C@@H]5CCN(C)[C@H](C)C5)ncc4c3)cc(C)c2n1 [Compound 277] | 0.1 to 1 µM | 0.1 to 1 µM | 1 to 10 µM | 0.1 to 1 µM
42 | Cc1cn2nc(-c3ccc4c(=O)n([C@H]5CCN(C)[C@H](C)C5)ncc4c3)cc(C)c2n1 [Compound 278] | 0.1 to 1 µM | 0.1 to 1 µM | 0.1 to 1 µM | 0.1 to 1 µM
43 | Cc1cn2nc(-c3ccc4c(=O)n(C5CCNC(C)(C)C5)ncc4c3)cc(C)c2n1 (stereo not drawn) [Compound 279] | < 0.1 µM | 0.1 to 1 µM | 0.1 to 1 µM | < 0.1 µM
44 | Cc1cn2nc(-c3ccc4c(=O)n([C@@H]5C[C@H]6CC[C@@H](C5)N6)ncc4c3)cc(C)c2n1 [Compound 280] | 0.1 to 1 µM | 0.1 to 1 µM | 1 to 10 µM | 0.1 to 1 µM
